How the values were obtained:
Type in all cases: in vivo, SD rats (Sprague-Dawley rats)
[1] = test system: SD rats with a high cholesterol diet (hyperlipidemia model); assay: Measurement of blood lipid in high cholesterol diet SD rats; conditions: Ex. compositions 1000 mg/kg/day, atorvastatin 5 mg/kg/day
Description: 6-Week-old male SD rats (Sprague-Dawley rats, body weight 180-220 g) were purchased from BioLink (Eumseong, Republic of Korea) and acclimated for a week. […] Drinking water was freely supplied. A room temperature of 22.0+/−2.0° C., a relative humidity of 50.0+/−10.0%, an illumination time of 12 hours (08:00 to 20:00), and an illuminance of 150 to 300 lux were set.
At the end of the experiment, each group was sacrificed after fasting for 12 hours. Their blood was collected from the posterior vena cava and transferred to an EDTA tube to separate the plasma. In the separated plasma, total cholesterol (TC), LDL cholesterol (LDL-c), HDL cholesterol (HDL-c) and triglycerides (TG) were measured using a biochemical kit (Asan Pharmaceutical Co., Ltd., Seoul, Republic of Korea).
The atherogenic index (AI) was calculated by the following equation (1) according to a method of Haulund et al. and the cardiac risk factor (CRF) was calculated by the following equation (2). Atherogenic Index(AI)=[(TC)−(HDL-c)]/[(HDL-c)] (1) Cardiac Risk Factor(CRF)=(TC)/(HDL-c) (2)

[2] = test system: SD rats with a high cholesterol diet (hyperlipidemia model); assay: Lipid analysis of liver tissue in high cholesterol diet SD rats; conditions: liver lipid extract, oral, Ex. compositions 1,000 mg/kg, atorvastatin 5 mg/kg
Description: (§1) 6-Week-old male SD rats (Sprague-Dawley rats, body weight 180-220 g) were purchased from BioLink (Eumseong, Republic of Korea) and acclimated for a week. They were formed into groups of five rats as described in Table 2 below, and solid feed (Rodent NIH031 Open Formula Auto, Zeigler Bros., USA) and a high cholesterol diet (D12451 with 1.25% cholesterol, Research Diets Inc., USA) were freely fed. Drinking water was freely supplied. A room temperature of 22.0+/−2.0° C., a relative humidity of 50.0+/−10.0%, an illumination time of 12 hours (08:00 to 20:00), and an illuminance of 150 to 300 lux were set.
The total lipids in the liver were homogenized and then extracted using a Folch method. The extracted lipids were dissolved in an isopropanol solution, and then with the SPECTROstar Nano (BMG Labtech, Germany), total cholesterol and triglycerides in […] were colorimetrically quantified at 500 nm and 550 nm, respectively, using an enzyme reagent kit (Asan Pharmaceutical Co., Ltd., Seoul, Republic of Korea).

[3] = test system: SD rats with a high cholesterol diet (hyperlipidemia model); assay: Measurement of body weight and liver weight, visual inspection of liver tissue; conditions: oral, 4 weeks, Ex. compositions 1,000 mg/kg, atorvastatin 5 mg/kg, mean of five rats
Description: as §1
The body weight before drug administration and the body weight after the end of the experiment were measured. The liver weight was measured by weighing the liver extracted after lethal bleeding on the day of autopsy, and visual inspection of liver tissue was performed.

CC(C)c1c(C(=O)Nc2ccccc2)c(-c2ccccc2)c(-c2ccc(F)cc2)n1CC[C@@H](O)C[C@@H](O)CC(=O)O [Atorvastatin]
Cardiac Risk Factor (CRF) ([1]; (TC)/(HDL-c)): 2.6
LDL/HDL [1]: 0.9
Hepatic total cholesterol concentration [2]: 146 mg/dL
Hepatic triglyceride concentration [2]: 197 mg/dL
Body weight [3]: 571.6 g
Liver weight [3]: 24.5 g
Liver weight/Body weight [3]: 4.26%

From patent publication US10543246B2, “Composition for preventing or treating hyperlipidemia” (HAWON PHARM. CORPORATION, priority 2014, dated 2020)
